This passage reports Kd results from ChEMBL document CHEMBL3991601, “The target landscape of clinical kinase drugs” (Science, 2017).

Calls of active or inactive are those of the source. Some results are limits rather than exact numbers.

One test has as its target T1, dCTP pyrophosphatase 1 (Homo sapiens, UniProt Q9H773).
T1 sequence (Q9H773 whole entry): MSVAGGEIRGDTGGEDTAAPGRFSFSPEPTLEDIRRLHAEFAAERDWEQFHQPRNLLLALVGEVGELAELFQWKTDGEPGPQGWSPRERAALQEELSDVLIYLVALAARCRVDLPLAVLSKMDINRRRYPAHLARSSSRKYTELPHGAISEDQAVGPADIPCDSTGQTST

The target of test [1] is T2, Cysteine--tRNA ligase, cytoplasmic (Homo sapiens, UniProt P49589).
T2 sequence (P49589 whole entry): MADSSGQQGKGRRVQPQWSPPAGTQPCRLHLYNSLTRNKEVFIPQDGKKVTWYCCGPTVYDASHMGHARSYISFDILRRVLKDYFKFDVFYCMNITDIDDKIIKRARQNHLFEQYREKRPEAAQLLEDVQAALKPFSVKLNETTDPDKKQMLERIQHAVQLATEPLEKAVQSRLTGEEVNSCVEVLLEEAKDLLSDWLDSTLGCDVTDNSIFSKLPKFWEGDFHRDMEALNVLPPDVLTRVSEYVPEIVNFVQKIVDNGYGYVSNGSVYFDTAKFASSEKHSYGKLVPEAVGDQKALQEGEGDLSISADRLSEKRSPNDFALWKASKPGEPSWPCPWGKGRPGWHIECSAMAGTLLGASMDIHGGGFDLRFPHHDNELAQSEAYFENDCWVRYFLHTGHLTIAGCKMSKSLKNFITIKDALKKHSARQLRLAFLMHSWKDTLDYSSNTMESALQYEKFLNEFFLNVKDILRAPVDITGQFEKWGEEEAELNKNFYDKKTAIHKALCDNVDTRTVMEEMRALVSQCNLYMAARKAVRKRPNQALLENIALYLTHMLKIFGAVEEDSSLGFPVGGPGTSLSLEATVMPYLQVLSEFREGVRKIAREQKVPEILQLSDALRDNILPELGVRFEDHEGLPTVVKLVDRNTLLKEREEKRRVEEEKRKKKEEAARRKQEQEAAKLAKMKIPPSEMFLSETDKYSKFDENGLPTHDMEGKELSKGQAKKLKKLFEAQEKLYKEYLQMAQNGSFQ

The target of test [2] is Serine/threonine-protein kinase N1 (Homo sapiens, UniProt Q16512).
Test [3] addresses Casein kinase I isoform gamma-1 (Homo sapiens, UniProt Q9HCP0).
Test [4] addresses Cyclin-dependent kinase 3 (Homo sapiens, UniProt Q00526).
For a further test, the target named is T3, ADP/ATP translocase 3 (Homo sapiens, UniProt P12236).
T3 sequence (P12236 whole entry): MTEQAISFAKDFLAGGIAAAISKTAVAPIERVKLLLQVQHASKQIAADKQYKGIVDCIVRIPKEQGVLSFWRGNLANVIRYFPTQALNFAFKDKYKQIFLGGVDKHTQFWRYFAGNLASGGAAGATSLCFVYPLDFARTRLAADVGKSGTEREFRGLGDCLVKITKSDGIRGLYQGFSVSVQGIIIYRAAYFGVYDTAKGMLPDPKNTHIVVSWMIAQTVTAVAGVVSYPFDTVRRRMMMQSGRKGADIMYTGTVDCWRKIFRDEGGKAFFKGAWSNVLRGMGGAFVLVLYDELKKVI

Test [5] has as its target T4, Phenylalanine--tRNA ligase beta subunit (Homo sapiens, UniProt Q9NSD9).
T4 sequence (Q9NSD9 whole entry): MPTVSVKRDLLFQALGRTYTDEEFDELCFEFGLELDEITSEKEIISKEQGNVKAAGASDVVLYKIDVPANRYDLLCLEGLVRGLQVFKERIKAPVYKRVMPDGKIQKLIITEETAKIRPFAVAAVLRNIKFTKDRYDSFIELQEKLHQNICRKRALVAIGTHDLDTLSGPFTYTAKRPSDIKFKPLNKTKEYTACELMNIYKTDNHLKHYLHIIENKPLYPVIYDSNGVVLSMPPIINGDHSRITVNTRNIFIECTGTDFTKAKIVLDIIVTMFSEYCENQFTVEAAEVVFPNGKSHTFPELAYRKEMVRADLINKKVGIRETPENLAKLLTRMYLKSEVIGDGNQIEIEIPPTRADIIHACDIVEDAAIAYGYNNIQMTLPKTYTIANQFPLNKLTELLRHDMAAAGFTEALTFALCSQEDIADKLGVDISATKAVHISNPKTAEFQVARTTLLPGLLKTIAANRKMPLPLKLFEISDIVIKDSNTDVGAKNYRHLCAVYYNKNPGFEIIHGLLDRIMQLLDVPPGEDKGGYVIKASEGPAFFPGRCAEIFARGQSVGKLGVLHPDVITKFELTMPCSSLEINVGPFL

In test [6] the target is Serine/threonine-protein kinase N2 (Homo sapiens, UniProt Q16513).
The target in test [7] is Epithelial discoidin domain-containing receptor 1 (Homo sapiens, UniProt Q08345).
The target in test [8] is Serine/threonine-protein kinase 26 (Homo sapiens, UniProt Q9P289).
Further: in the data inactive means no Kd found up to 30 µM.

Sequence of Serine/threonine-protein kinase N2 (Q16513 whole entry, the tested form may be a part): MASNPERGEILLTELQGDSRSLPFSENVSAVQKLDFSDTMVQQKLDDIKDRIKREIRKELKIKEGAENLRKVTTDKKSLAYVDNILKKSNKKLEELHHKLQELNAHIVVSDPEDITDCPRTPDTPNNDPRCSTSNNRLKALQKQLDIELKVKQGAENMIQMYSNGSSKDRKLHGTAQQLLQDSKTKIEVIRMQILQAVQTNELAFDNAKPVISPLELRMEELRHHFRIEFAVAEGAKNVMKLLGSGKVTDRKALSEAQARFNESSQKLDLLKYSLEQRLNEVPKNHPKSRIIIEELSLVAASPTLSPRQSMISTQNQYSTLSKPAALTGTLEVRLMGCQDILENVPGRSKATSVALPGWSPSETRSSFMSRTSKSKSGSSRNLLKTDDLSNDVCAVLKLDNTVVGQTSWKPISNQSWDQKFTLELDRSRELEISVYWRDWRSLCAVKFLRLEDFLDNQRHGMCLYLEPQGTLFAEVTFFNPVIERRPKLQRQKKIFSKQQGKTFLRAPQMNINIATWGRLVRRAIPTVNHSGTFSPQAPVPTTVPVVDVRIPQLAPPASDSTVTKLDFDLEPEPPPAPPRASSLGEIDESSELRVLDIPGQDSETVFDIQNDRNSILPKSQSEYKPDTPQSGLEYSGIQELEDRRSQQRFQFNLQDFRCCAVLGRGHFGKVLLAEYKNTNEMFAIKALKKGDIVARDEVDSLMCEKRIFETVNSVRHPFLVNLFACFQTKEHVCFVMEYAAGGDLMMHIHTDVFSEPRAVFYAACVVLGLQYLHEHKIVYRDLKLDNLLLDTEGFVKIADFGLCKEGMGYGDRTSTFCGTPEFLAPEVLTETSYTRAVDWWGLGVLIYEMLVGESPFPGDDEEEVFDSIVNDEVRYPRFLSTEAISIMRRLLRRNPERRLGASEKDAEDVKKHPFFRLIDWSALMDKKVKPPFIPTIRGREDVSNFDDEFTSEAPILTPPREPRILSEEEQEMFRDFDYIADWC
Sequence of Epithelial discoidin domain-containing receptor 1 (Q08345 whole entry, the tested form may be a part): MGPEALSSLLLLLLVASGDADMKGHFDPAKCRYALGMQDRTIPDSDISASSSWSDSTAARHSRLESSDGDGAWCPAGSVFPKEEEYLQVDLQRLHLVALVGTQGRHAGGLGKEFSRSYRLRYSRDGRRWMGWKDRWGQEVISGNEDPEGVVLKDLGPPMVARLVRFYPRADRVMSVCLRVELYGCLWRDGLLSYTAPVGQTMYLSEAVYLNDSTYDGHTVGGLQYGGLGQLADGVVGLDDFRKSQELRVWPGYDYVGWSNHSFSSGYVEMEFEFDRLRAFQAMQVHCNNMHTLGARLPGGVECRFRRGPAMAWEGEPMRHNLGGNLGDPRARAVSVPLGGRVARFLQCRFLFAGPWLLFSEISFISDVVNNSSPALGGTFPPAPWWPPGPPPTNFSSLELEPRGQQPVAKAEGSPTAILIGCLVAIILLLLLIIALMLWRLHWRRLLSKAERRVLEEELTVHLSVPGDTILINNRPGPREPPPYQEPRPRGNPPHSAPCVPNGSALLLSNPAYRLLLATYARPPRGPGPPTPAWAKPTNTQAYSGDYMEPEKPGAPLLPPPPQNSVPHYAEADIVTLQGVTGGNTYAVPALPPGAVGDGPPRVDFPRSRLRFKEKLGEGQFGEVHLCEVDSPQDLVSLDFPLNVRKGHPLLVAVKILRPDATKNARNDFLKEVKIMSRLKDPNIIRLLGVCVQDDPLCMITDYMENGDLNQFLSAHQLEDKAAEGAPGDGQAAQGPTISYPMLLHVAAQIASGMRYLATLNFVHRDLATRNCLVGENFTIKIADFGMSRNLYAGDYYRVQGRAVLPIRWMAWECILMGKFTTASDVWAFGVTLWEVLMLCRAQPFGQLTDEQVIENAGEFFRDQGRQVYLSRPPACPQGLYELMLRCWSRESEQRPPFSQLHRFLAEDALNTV
Sequence of Casein kinase I isoform gamma-1 (Q9HCP0 whole entry, canonical isoform): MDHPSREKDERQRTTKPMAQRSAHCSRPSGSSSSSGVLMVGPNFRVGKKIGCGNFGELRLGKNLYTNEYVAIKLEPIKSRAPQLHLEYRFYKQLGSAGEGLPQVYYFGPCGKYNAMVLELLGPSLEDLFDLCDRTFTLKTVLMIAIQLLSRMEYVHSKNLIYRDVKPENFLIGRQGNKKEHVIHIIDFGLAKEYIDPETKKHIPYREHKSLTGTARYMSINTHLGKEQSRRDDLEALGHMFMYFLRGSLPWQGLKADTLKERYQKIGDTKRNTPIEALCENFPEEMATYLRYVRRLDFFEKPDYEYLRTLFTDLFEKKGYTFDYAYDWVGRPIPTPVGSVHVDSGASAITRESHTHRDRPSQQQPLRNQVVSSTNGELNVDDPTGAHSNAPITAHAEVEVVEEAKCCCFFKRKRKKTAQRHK
Sequence of Serine/threonine-protein kinase 26 (Q9P289 whole entry): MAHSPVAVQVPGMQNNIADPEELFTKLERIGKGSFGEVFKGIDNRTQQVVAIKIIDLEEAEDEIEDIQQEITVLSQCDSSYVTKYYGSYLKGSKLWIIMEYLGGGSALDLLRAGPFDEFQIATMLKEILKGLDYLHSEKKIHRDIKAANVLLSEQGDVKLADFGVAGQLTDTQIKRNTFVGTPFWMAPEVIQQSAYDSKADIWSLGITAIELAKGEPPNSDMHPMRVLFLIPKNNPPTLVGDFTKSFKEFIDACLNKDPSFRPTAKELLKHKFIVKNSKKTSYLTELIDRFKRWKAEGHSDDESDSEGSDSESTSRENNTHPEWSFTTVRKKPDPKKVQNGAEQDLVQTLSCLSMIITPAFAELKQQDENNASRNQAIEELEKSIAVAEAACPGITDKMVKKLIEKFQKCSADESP
Sequence of Cyclin-dependent kinase 3 (Q00526 whole entry): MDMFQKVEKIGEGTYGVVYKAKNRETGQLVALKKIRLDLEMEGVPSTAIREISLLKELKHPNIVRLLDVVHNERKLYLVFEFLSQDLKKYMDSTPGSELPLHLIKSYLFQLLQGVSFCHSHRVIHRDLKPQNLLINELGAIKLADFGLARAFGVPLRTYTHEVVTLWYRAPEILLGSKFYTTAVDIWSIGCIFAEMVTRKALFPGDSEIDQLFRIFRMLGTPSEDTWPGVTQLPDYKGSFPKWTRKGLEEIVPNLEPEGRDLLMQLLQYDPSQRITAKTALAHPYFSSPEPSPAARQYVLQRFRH
Sequence of Serine/threonine-protein kinase N1 (Q16512 whole entry, canonical isoform): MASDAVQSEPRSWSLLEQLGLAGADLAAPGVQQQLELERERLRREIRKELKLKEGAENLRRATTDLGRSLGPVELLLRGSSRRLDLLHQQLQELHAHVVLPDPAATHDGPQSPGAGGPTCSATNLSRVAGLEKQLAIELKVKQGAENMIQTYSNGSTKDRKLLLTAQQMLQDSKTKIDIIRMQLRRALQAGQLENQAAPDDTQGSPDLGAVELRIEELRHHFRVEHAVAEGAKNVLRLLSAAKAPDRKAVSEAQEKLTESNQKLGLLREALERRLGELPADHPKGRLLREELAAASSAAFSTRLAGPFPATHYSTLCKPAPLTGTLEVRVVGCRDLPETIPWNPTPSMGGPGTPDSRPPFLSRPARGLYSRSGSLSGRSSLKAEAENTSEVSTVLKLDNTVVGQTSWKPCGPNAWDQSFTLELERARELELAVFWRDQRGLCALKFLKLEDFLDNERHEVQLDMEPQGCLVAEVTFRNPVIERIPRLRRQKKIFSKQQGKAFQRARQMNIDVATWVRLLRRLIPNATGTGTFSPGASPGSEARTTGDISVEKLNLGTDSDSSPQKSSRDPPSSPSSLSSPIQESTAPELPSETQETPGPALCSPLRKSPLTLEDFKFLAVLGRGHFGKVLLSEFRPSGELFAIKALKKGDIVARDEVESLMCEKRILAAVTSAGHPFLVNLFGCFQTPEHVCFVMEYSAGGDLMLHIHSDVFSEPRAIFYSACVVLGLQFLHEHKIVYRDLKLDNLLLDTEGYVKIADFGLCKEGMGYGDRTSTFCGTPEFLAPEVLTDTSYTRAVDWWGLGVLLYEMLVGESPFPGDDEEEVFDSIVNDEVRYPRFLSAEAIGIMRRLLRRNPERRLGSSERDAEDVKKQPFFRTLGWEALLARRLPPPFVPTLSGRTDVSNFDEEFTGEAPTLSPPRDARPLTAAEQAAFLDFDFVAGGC

As usually defined, the Kd is the free concentration of one partner at which half of the binding sites on the other are occupied at equilibrium, for simple one-to-one binding. With `CC(C)Nc1cc(-c2c[nH]c(C(=O)N[C@H](CO)c3cccc(Cl)c3)c2)c(Cl)cn1` [ULIXERTINIB], the Kd (at dCTP pyrophosphatase 1; in test [1]; in [2]; in test [3]; in [4]; at ADP/ATP translocase 3) was > 30 µM (inactive) in each case. The Kd in test [5], in test [6], in test [7] and in [8] was > 30 µM (inactive) each time.
Regarding `C[C@@H]1CN(Cc2ccc(F)cc2)[C@@H](C)CN1C(=O)c1cc2c(C(=O)C(=O)N(C)C)cn(C)c2cc1Cl` [TALMAPIMOD], the Kd (at dCTP pyrophosphatase 1; in test [1]; in test [2]; in [3]; in test [4]; at ADP/ATP translocase 3) was > 30 µM (inactive) in each case. For the same molecule, the Kd in test [5], in test [6], in [7] and in test [8] was > 30 µM (inactive) in each case.
`COc1ccc(-c2ccc3c(N4CCOC[C@@H]4C)nc(N4CCOC[C@@H]4C)nc3n2)cc1CO` [AZD-8055]: the Kd (on dCTP pyrophosphatase 1; in [1]; in test [2]; in test [3]; in test [4]; at ADP/ATP translocase 3) was > 30 µM (inactive) in each case. Also, the Kd in test [5], in test [6], in [7] and in test [8] was > 30 µM (inactive) throughout.
With `CN1CC[C@@H](c2c(O)cc(O)c3c(=O)cc(-c4ccccc4Cl)oc23)[C@@H]1CO`, the Kd (at dCTP pyrophosphatase 1; in [1]; in test [2]; in [3]; in test [4]; at ADP/ATP translocase 3) was > 30 µM (inactive) in each case. The Kd in [5], in test [6], in test [7] and in test [8] was > 30 µM (inactive) in each case.
For the molecule `Cc1ccc(-n2nc(C(C)(C)C)cc2NC(=O)NCc2cc(F)ccc2Oc2ccc3c(cnn3CCO)c2)cc1` [PEXMETINIB], the Kd (at dCTP pyrophosphatase 1; in test [1]; in test [2]; in test [3]; in [4]; at ADP/ATP translocase 3) was > 30 µM (inactive) throughout. Further, the Kd in test [5] is > 30 µM (inactive); in test [6], > 30 µM (inactive); in test [7], 0.363 µM (active); in [8] it was > 30 µM (inactive).
For the molecule `C[C@@H](c1ccc2nccn2c1)n1nnc2ncc(-c3cnn(C)c3)nc21` [SAVOLITINIB], the Kd (on dCTP pyrophosphatase 1; in [1]; in [2]; in test [3]; in [4]; at ADP/ATP translocase 3) was > 30 µM (inactive) throughout. In addition, the Kd in test [5], in test [6], in test [7] and in test [8] was > 30 µM (inactive) each time.
On to `CNC(=O)c1cc(Oc2ccc(NC(=O)Nc3ccc(Cl)c(C(F)(F)F)c3)c(F)c2)ccn1` [REGORAFENIB], for which the Kd (on dCTP pyrophosphatase 1; in test [1]; in test [2]; in [3]; in [4]; at ADP/ATP translocase 3) was > 30 µM (inactive) in each case. Moreover, the Kd was > 30 µM (inactive) in test [5], > 30 µM (inactive) in test [6], 0.358 µM (active) in [7] and > 30 µM (inactive) in test [8].
Take `COc1cc2nccc(Oc3ccc(NC(=O)Nc4cc(C)on4)c(Cl)c3)c2cc1OC` [TIVOZANIB]: the Kd (on dCTP pyrophosphatase 1; in test [1]; in test [2]; in test [3]; in [4]; at ADP/ATP translocase 3) was > 30 µM (inactive) throughout. In addition, the Kd in test [5] is > 30 µM (inactive); in test [6] it was > 30 µM (inactive); in test [7], 0.19 µM (active); in [8] it was > 30 µM (inactive).
As to `CCCS(=O)(=O)Nc1ccc(F)c(C(=O)c2c[nH]c3ncc(-c4ccc(Cl)cc4)cc23)c1F` [VEMURAFENIB], the Kd (at dCTP pyrophosphatase 1; in test [1]; in test [2]; in [3]; in test [4]; at ADP/ATP translocase 3) was > 30 µM (inactive) each time. Besides, the Kd in test [5], in [6], in [7] and in test [8] was > 30 µM (inactive) each time.
Take `N[C@@H]1CCCN(c2c(/C=C3\SC(=O)NC3=O)cccc2-c2ccccc2)C1`: the Kd (at dCTP pyrophosphatase 1; in test [1]; in [2]; in test [3]; in [4]; on ADP/ATP translocase 3) was > 30 µM (inactive) in each case. In addition, the Kd in test [5], in test [6], in [7] and in test [8] was > 30 µM (inactive) in each case.
In the case of `O=C(O)[C@]1(Cc2cccc(Nc3nccs3)n2)CC[C@@H](Oc2cccc(Cl)c2F)CC1` [MK-5108], the Kd (on dCTP pyrophosphatase 1; in test [1]; in test [2]; in test [3]; in [4]; on ADP/ATP translocase 3) was > 30 µM (inactive) each time. Besides, the Kd is > 30 µM (inactive) in test [5], > 30 µM (inactive) in test [6], 1.22 µM (active) in test [7] and > 30 µM (inactive) in test [8].
For the molecule `COc1cc(OC)c(/C=C/S(=O)(=O)Cc2ccc(OC)c(NCC(=O)O)c2)c(OC)c1` [RIGOSERTIB], the Kd (on dCTP pyrophosphatase 1; in test [1]; in test [2]; in test [3]; in test [4]; at ADP/ATP translocase 3) was > 30 µM (inactive) each time. Further, the Kd in test [5], in [6], in test [7] and in test [8] was > 30 µM (inactive) each time.
